Measured values published in article PMC10064984, “Anti-cyclooxygenase, anti-glycation, and anti-skin aging effect of Dendrobium officinale flowers’ aqueous extract and its phytochemical validation in aging” (Frontiers in Immunology, 2023).
“And” between values parts separate entries of the source, which are not always exact repeats. Equal values may be shown once. Read-outs that look alike come from different tables or passages of the source.

Key:
[1] = Online UPLC-PDA-MS-ABTS·+ scavenging (postcolumn derivatisation); conditions: within DOF extract
Procedure: Online identification of antioxidant components of DOF extract was performed using a UPLC system (Milford, MA, USA) consisting of a Waters photodiode array detector and a Waters postcolumn derivatisation system supplying fresh ABTS solution (UPLC-PDA-QDa-ABTS). […] The detection wavelengths were set at 280 and 734 nm, and the injection volume of the sample was 10 μl.
To detect radical scavengers, the UPLC system was coupled with a Waters pump, which supplied freshly prepared ABTS·+ solution into a reaction coil (15 m, 0.25 mm ID) with a flow rate of 0.2 ml/min at 37°C. Negative peaks were recorded based on a decrease of absorbance at 729 nm after the reaction of individual compounds with the ABTS·+ radical. For preliminary identification of compounds, a Waters Acquity QDa mass detector in negative ionisation mode was connected in series to PDA with the following parameters: electrospray ion source; cone voltage, 15 V; atomiser, N2; and scanning range, 100–800 m/z.

[2] = FRAP total antioxidant capacity; assay type: biochemical;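 also: colourimetric FRAP kit assay read as absorbance in 96-well plates, values as mM FeSO4 via standard curve, EC1 being sample concentration matching 1.0 mmol/L FeSO4, Trolox positive control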
COX-2 = target: T1, COX-2 (Homo sapiens, UniProt P35354); assay: Anti-COX-2 assay (COX-2 Inhibitor Screening Kit); assay type: biochemical
T1 construct: purchased Beyotime S0168
T1 sequence (P35354 18-604): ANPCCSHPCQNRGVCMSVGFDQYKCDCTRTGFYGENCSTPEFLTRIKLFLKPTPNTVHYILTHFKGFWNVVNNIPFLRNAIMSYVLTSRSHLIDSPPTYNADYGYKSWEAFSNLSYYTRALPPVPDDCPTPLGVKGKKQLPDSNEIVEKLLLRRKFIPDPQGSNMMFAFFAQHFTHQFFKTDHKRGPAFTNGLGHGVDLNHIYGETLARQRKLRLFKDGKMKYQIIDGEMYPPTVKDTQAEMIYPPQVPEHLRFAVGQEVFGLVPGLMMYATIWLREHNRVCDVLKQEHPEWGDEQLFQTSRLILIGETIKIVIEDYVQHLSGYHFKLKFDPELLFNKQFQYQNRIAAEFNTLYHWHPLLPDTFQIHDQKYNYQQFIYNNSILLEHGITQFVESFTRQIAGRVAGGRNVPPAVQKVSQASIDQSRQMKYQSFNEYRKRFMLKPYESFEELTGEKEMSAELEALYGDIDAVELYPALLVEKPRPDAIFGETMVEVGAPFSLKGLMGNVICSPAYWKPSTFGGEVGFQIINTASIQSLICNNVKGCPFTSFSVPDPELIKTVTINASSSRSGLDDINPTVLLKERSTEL

[3] = ABTS·+ decolourisation capacity; assay type: biochemical; conditions: mean ± SD, n = 3
Method in brief: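 IC50 values were derived graphically from dose-inhibition curves, with % inhibition calculated versus a buffer-only (0.2 M phosphate, pH 7.4) control. Each sample (200 μl) reacted for 10 min with 100 μl ABTS·+ reagent pre-set to A729 0.8 ± 0.05, then absorbance at 729 nm was measured in triplicate.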

DPPH· scavenging = assay type: biochemical; conditions: mean ± SD, n = 3
[4] = Fluorescent AGEs formation in a BSA-fructose/glucose system; assay type: biochemical; conditions: for IC50: mean ± SD, n = 3, read-out: BSA-glycation IC50; for inhibition of fluorescent AGEs formation (BSA-抗糖化), single replicate: individual replicate; for inhibition of fluorescent AGEs formation (BSA-抗糖化), 平均 (mean): mean of 3 replicates
Method in brief: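 Fluorescent AGE inhibition was measured in triplicate, correcting sample and control fluorescence for BSA-free blanks. Glycation used BSA incubated with D-fructose and D-glucose, with samples dissolved in DMSO:water (1:4).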

[5] = lower part of sheet (compound series)

With O=c1cc(-c2ccc(O)cc2)oc2c(C3OC(CO)C(O)C(O)C3O)c(O)c(C3OC(CO)C(O)C(O)C3O)c(O)c12 (stereo not shown) [compound 10, Vicenin-2] the “online ABTS radical scavenging (size of negative peaks at 734 nm)” value (shortened to “online ABTS radical scavenging”) [1] was “strongest ABTS radical scavengers”, the “FRAP EC1” value [2, 5] was over 5000 µM and the “COX-2 inhibition (in words)” value (COX-2) was “no inhibitory effects”. For the same compound, the inhibition at 31.25 µM (COX-2; 31.25 μM, single replicates) was 30%, the COX-2 inhibition (COX-2; 31.25 μM, single replicates, listed as T7, 31.25 µM) was 20.65% and 19.20% and the COX-2 inhibition (COX-2; 62.5 μM, single replicates, listed as T7, 62.5 µM) was -16.69% and -16.14% and 33.41%. For the same compound, the COX-2 inhibition (COX-2; 125 μM, single replicates, listed as T7, 125 µM) was -28.47% and -18.44% and 17.41%, the COX-2 inhibition (COX-2; 250 μM, single replicates, listed as T7, 250 µM) was -29.84% and -23.37% and -7.75% and the COX-2 inhibition (COX-2; 500 μM, single replicates, listed as T7, 500 µM) was -24.98% and -23.56% and -9.18%. For the same compound, the COX-2 inhibition (COX-2; 1000 μM, single replicates, listed as T7, 1000 µM) was -59.66% and -32.74% and -11.22%, the COX-2 inhibition (COX-2; 2000 μM (2mM), single replicates, listed as T7) was -38.84% and -31.81% and -15.79% and the IC50 [3] was 74.41 ± 0.69 µM. For the same compound, the IC50 (DPPH· scavenging) was over 5000 µM and the IC50 [4] was 258 ± 7.56 µM.
With C[C@@H]1O[C@@H](OC[C@H]2O[C@@H](Oc3c(-c4ccc(O)c(O)c4)oc4cc(O)cc(O)c4c3=O)[C@H](O)[C@@H](O)[C@@H]2O)[C@H](O)[C@H](O)[C@H]1O [compound 24, Rutin] the “online ABTS radical scavenging” value [1] was “strongest ABTS radical scavengers”, the “FRAP EC1” value [2, 5] was 205.0 ± 12.2 µM and the “FRAP EC1” value ([2]; mean ± SD, n = 3) was 205.0 ± 12.2 µM. For the same compound, the “COX-2 inhibition (in words)” value (COX-2) was “great COX-2 inhibition”, the inhibition at 3.125 µM (COX-2; 3.125 μM, single replicates) was 23.1% and the COX-2 inhibition (COX-2; 3.125 μM, single replicates, listed as T3, 3.125 µM) was 13.73% and 18.58%. The inhibition at 6.25 µM (COX-2; 6.25 μM, single replicates) was 42.8%, the COX-2 inhibition (COX-2; 6.25 μM, single replicates, listed as T3, 6.25 µM) was 37.16% and the COX-2 inhibition (COX-2; 12.5 μM, single replicates, listed as T3, 12.5 µM) was 68.24% and 51.05% and 71.69%. The inhibition at 25 µM (COX-2; 25 μM, single replicates) was 78%, the COX-2 inhibition (COX-2; 25 μM, single replicates, listed as T3, 25 µM) was 72.08% and 76.61% and the inhibition at 50 µM (COX-2; 50 μM, single replicates) was 81.2%. The COX-2 inhibition (COX-2; 50 μM, single replicates, listed as T3, 50 µM) was 77.16% and 78.42%, the inhibition at 100 µM (COX-2; 100 μM, single replicates) was 81.5% and the COX-2 inhibition (COX-2; 100 μM, single replicates, listed as T3, 100 µM) was 79.28% and 81.06%. For the same compound, the inhibition at 200 µM (COX-2; 200 μM, single replicates) was 84.3%, the COX-2 inhibition (COX-2; 200 μM, single replicates, listed as T3, 200 µM) was 81.14% and 83.16% and the IC50 [3] was 33.1 ± 0.37 µM. The IC50 (DPPH· scavenging) was 43.3 ± 1.75 µM and the IC50 [4] was 222 ± 13.5 µM.
With O=C(O)CC(=O)OCC1OC(Oc2c(-c3ccc(O)c(O)c3)oc3cc(O)cc(O)c3c2=O)C(O)C(O)C1O (stereo not shown) [compound 27, Quercetin 3-O-(6″-malonyl-glucoside)] the “online ABTS radical scavenging” value [1] was “strongest ABTS radical scavengers”, the “FRAP EC1” value [2, 5] was 826.7 ± 98.5 µM and the “COX-2 inhibition (in words)” value (COX-2) was “great COX-2 inhibition”. For the same compound, the inhibition at 3.125 µM (COX-2; 3.125 μM, single replicates) was 24.6%, the COX-2 inhibition (COX-2; 3.125 μM, single replicates, listed as T11, 3.125 µM) was 20.59% and 27.90% and the COX-2 inhibition (COX-2; 6.25 μM, single replicates, listed as T11, 6.25 µM) was 14.74% and 29.06% and 32.72%. For the same compound, the inhibition at 12.5 µM (COX-2; 12.5 μM, single replicates) was 58.4%, the COX-2 inhibition (COX-2; 12.5 μM, single replicates, listed as T11, 12.5 µM) was 54.43% and 66.15% and the inhibition at 25 µM (COX-2; 25 μM, single replicates) was 71.8%. For the same compound, the COX-2 inhibition (COX-2; 25 μM, single replicates, listed as T11, 25 µM) was 72.43% and 76.32%, the inhibition at 50 µM (COX-2; 50 μM, single replicates) was 73.1% and the COX-2 inhibition (COX-2; 50 μM, single replicates, listed as T11, 50 µM) was 74.00% and 78.80%. The inhibition at 100 µM (COX-2; 100 μM, single replicates) was 77.6%, the COX-2 inhibition (COX-2; 100 μM, single replicates, listed as T11, 100 µM) was 75.00% and 79.64% and the inhibition at 200 µM (COX-2; 200 μM, single replicates) was 75.5%. The COX-2 inhibition (COX-2; 200 μM, single replicates, listed as T11, 200 µM) was 78.98% and 87.56%, the IC50 (COX-2; mean ± SD, n = 3, nd, not detected, read-out: COX-2 IC50) was 12.5 ± 2.9 µM and the IC50 (COX-2; supplement sheet COX, read-out: COX-2 IC50, single replicate) was 13.5 µM and 9.23 µM and 14.8 µM. The IC50 [3] was 28.4 ± 0.47 µM, the IC50 (DPPH· scavenging) was 24.7 ± 0.96 µM and the “inhibition of fluorescent AGEs formation (BSA-抗糖化), single replicate” value (from here on “inhibition … single replicate”) ([4]; 15.625 µM, listed as T11, 15.625 µM) was 10.51% and 15.35% and 23.11%. The “inhibition of fluorescent AGEs formation (BSA-抗糖化), 平均 (mean)” value (“inhibition … (mean)” below) ([4]; 15.625 µM) was 16.32%, the “inhibition … single replicate” value ([4]; 31.25 µM, listed as T11, 31.25 µM) was 5.08% and 5.86% and 10.67% and the “inhibition … (mean)” value ([4]; 31.25 µM) was 7.20%. For the same compound, the “inhibition … single replicate” value ([4]; 62.5 µM, listed as T11, 62.5 µM) was 17.13% and 15.89% and 16.80%, the “inhibition … (mean)” value ([4]; 62.5 µM) was 16.61% and the “inhibition … single replicate” value ([4]; 125 µM, listed as T11, 125 µM) was 26.98% and 29.78% and 30.07%. For the same compound, the “inhibition … (mean)” value ([4]; 125 µM) was 28.94%, the “inhibition … single replicate” value ([4]; 250 µM, listed as T11, 250 µM) was 45.50% and 47.09% and 47.76% and the “inhibition … (mean)” value ([4]; 250 µM) was 46.78%. For the same compound, the “inhibition … single replicate” value ([4]; 500 µM, listed as T11, 500 µM) was 61.62% and 62.32% and 63.30%, the “inhibition … (mean)” value ([4]; 500 µM) was 62.41% and the “inhibition … single replicate” value ([4]; 1000 µM, listed as T11, 1000 µM) was 77.56% and 77.94% and 77.85%. For the same compound, the “inhibition … (mean)” value ([4]; 1000 µM) was 77.78%, the “inhibition … single replicate” value ([4]; 2000 µM, listed as T11, 2000 µM) was 88.53% and 88.63% and 88.83% and the “inhibition … (mean)” value ([4]; 2000 µM) was 88.66%. The “inhibition … single replicate” value ([4]; 4000 µM (series head 'T9 4000µM', 2-fold dilutions), listed as T11) was 94.35% and 94.74% and 94.79%, the “inhibition … (mean)” value ([4]; 4000 µM) was 94.62% and the IC50 [4] was 288 ± 17.9 µM.
